Laboratory results from US9884043B2, “RORgammaT inhibitors” (Merck Sharp & Dohme Corp., priority 2011, dated 2018).

These compounds were tested against T1, HIS-tagged RORγ-LBD (Homo sapiens, UniProt P51449) (assay: TR-FRET assay (Protocol B), RORγ-LBD lysate / biotinylated SRC1-2 LXXLL peptide). Details: unpurified RORγ-LBD lysate ~10 nM, SRC1-2 peptide 450 nM.
T1 construct: HIS-tagged RORγ-LBD was recombinantly expressed in SF9 cells using a baculovirus expression system; made in house; host or cells: SF9 cells, baculovirus; crude lysate used
T1 sequence (P51449 269-508 limits assumed): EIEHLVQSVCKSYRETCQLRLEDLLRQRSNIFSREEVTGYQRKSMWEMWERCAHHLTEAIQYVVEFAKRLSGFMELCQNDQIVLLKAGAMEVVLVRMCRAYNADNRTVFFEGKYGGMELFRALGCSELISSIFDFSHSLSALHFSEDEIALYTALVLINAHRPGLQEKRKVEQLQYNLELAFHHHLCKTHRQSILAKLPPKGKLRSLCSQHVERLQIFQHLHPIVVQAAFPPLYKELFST
Format: biochemical
Source text: Activation of RORgammaT activity can be measured using e.g. biochemical TR-FRET assay. In such an assay, interaction of cofactor-derived peptides with human RORgammaT-Ligand Binding Domain (LBD) can be measured.
To identify novel antagonists of RORgammaT, an assay was developed which employs the interaction of RORgammaT with its co-activator peptide SRC1_2. […] The assay was run following three slightly different protocols, i.e. Protocol A, Protocol B, and Protocol C, which are described below.
TR-Fret Assay (Protocol B)
HIS-tagged RORγ-LBD was recombinantly expressed in SF9 cells using a baculovirus expression system. The protein was not purified. Cells were lysed and the lysate was used as a source for RORγ-LBD for the assay. A 1:80 dilution of RORγ-LBD lysate in assay buffer (25 mM HEPES pH 7.0, 100 mM NaCl, 0.01% Tween, 0.1% BSA) was prepared and 5 μL was added to each well (RORγ-LBD final concentration ˜10 nM). Control wells received lysate from SF9 cells not expressing RORγ-LBD.
Compounds to be tested were diluted to 100× final test concentration in DMSO and further diluted to 4× final test concentration using assay buffer to provide the test compound mixture. An aliquot (5 μL) of the test compound mixture was added to each well.

| IC50 | Structure (SMILES) |
| --- | --- |
| < 50 nM | CN(C)C(=O)c1ccc2c(-c3ccc(C(=O)O)cc3Cl)nn(C(=O)c3c(Cl)cccc3C(F)(F)F)c2c1 [Example 25J, 3-chloro-4-(1-(2-chloro-6-(trifluoromethyl)benzoyl)-6-(dimethyl-carbamoyl)-1H-indazol-3-yl)benzoic acid] |
| < 50 nM | O=C(O)c1ccc(-c2nn(C(=O)c3c(Cl)cccc3C(F)(F)F)c3cc(C(=O)NCCO)ccc23)c(Cl)c1 [Example 25K, 3-chloro-4-(1-(2-chloro-6-(trifluoromethyl)benzoyl)-6-(2-hydroxyethyl-carbamoyl)-1H-indazol-3-yl)benzoic acid] |
| < 50 nM | O=C(O)c1ccc(-c2nn(C(=O)c3c(Cl)cccc3C(F)(F)F)c3cc(C(=O)NCCCO)ccc23)cc1 [Example 25L, 4-(1-(2-chloro-6-(trifluoromethyl)benzoyl)-6-(3-hydroxypropyl-carbamoyl)-1H-indazol-3-yl)benzoic acid] |
| < 50 nM | O=C(O)c1ccc(-c2nn(C(=O)c3c(Cl)cccc3C(F)(F)F)c3cc(C(=O)NCCCO)ccc23)c(F)c1 [Example 25M, 4-(1-(2-chloro-6-(trifluoromethyl)benzoyl)-6-(3-hydroxypropyl-carbamoyl)-1H-indazol-3-yl)-3-fluorobenzoic acid] |
| < 50 nM | CC(O)CNC(=O)c1ccc2c(-c3ccc(C(=O)O)cc3)nn(C(=O)c3c(Cl)cccc3C(F)(F)F)c2c1 (centres unmarked) [Example 25O, 4-(1-(2-chloro-6-(trifluoromethyl)benzoyl)-6-(2-hydroxypropyl-carbamoyl)-1H-indazol-3-yl)benzoic acid] |
| < 50 nM | O=C(O)c1ccc(-c2nn(C(=O)c3c(Cl)cccc3C(F)(F)F)c3cc(C(=O)NCCCCO)ccc23)cc1 [Example 25P, 4-(1-(2-chloro-6-(trifluoromethyl)benzoyl)-6-(4-hydroxybutyl-carbamoyl)-1H-indazol-3-yl)benzoic acid] |
| < 50 nM | CN(CCO)C(=O)c1ccc2c(-c3ccc(C(=O)O)cc3)nn(C(=O)c3c(Cl)cccc3C(F)(F)F)c2c1 [Example 25Q, 4-(1-(2-chloro-6-(trifluoromethyl)benzoyl)-6-((2-hydroxyethyl) (methyl)carbamoyl)-1H-indazol-3-yl)benzoic acid] |
| < 50 nM | CN(CCO)C(=O)c1ccc2c(-c3ccc(C(=O)O)cc3F)nn(C(=O)c3c(Cl)cccc3C(F)(F)F)c2c1 [Example 25R, 4-(1-(2-chloro-6-(trifluoromethyl)benzoyl)-6-((2-hydroxyethyl) (methyl)carbamoyl)-1H-indazol-3-yl)-3-fluorobenzoic acid] |
| < 50 nM | O=C(O)c1c(O)cc(-c2nn(C(=O)c3c(Cl)cccc3C(F)(F)F)c3cccc(F)c23)cc1F [Example 26D, 4-(1-(2-chloro-6-(trifluoromethyl)benzoyl)-4-fluoro-1H-indazol-3-yl)-2-fluoro-6-hydroxybenzoic acid] |

Second part, the compound before the results:

| Structure (SMILES) | IC50 |
| --- | --- |
| Cc1cc(C(=O)O)c(F)cc1-c1nn(C(=O)c2c(Cl)cccc2C(F)(F)F)c2cccc(F)c12 [Example 24K, 4-(1-(2-chloro-6-(trifluoromethyl)-benzoyl)-4-fluoro-1H-indazol-3-yl)-2-fluoro-5-methylbenzoic acid] | < 50 nM |
| Cc1cc(C(=O)O)ccc1-c1nn(C(=O)c2c(Cl)cccc2C(F)(F)F)c2cccc(F)c12 [Example 24L, 4-(1-(2-chloro-6-(trifluoromethyl)-benzoyl)-4-fluoro-1H-indazol-3-yl)-3-methylbenzoic acid] | < 50 nM |
| Cc1cc(-c2nn(C(=O)c3c(Cl)cccc3C(F)(F)F)c3cccc(F)c23)ccc1C(=O)O [Example 24P, 4-(1-(2-chloro-6-(trifluoromethyl)-benzoyl)-4-fluoro-1H-indazol-3-yl)-2-methylbenzoic acid] | < 50 nM |
| COc1cc(C(=O)O)ccc1-c1nn(C(=O)c2c(Cl)cccc2C(F)(F)F)c2cccc(F)c12 [Example 24Q, 4-(1-(2-chloro-6-(trifluoromethyl)-benzoyl)-4-fluoro-1H-indazol-3-yl)-3-methoxybenzoic acid] | 50 to 500 nM |
| O=C(O)c1c(F)cc(-c2nn(C(=O)c3c(Cl)cccc3C(F)(F)F)c3cccc(F)c23)cc1F [Example 24R, 4-(1-(2-chloro-6-(trifluoromethyl)-benzoyl)-4-fluoro-1H-indazol-3-yl)-2,6-difluorobenzoic acid] | < 50 nM |
| CC(C)c1cc(-c2nn(C(=O)c3c(Cl)cccc3C(F)(F)F)c3cccc(F)c23)ccc1C(=O)O [Example 24S, 4-(1-(2-chloro-6-(trifluoromethyl)-benzoyl)-4-fluoro-1H-indazol-3-yl)-2-isopropylbenzoic acid] | 500 to 10000 nM |
| COc1cc(C(=O)O)cc(OC)c1-c1nn(C(=O)c2c(Cl)cccc2C(F)(F)F)c2cccc(F)c12 [Example 24T, 4-(1-(2-chloro-6-(trifluoromethyl)-benzoyl)-4-fluoro-1H-indazol-3-yl)-3,5-dimethoxybenzoic acid] | > 10000 nM |
| N#Cc1cc(-c2nn(C(=O)c3c(Cl)cccc3C(F)(F)F)c3cccc(F)c23)ccc1C(=O)O [Example 24U, 4-(1-(2-chloro-6-(trifluoromethyl)-benzoyl)-4-fluoro-1H-indazol-3-yl)-2-cyano benzoic acid] | < 50 nM |
| O=C(O)c1ccc(-c2nn(C(=O)c3c(Cl)cccc3C(F)(F)F)c3cccc(F)c23)c(F)c1F [Example 24V, 4-(1-(2-chloro-6-(trifluoromethyl)-benzoyl)-4-fluoro-1H-indazol-3-yl)-2,3-difluorobenzoic acid] | < 50 nM |
| O=C(O)c1cc(F)c(-c2nn(C(=O)c3c(Cl)cccc3C(F)(F)F)c3cccc(F)c23)cc1F [Example 24W, 4-(1-(2-chloro-6-(trifluoromethyl)-benzoyl)-4-fluoro-1H-indazol-3-yl)-2,5-difluorobenzoic acid] | < 50 nM |
| O=C(O)c1cc(F)c(-c2nn(C(=O)c3c(Cl)cccc3C(F)(F)F)c3cccc(F)c23)cc1Cl [Example 24X, 2-chloro-4-(1-(2-chloro-6-(trifluoromethyl)-benzoyl)-4-fluoro-1H-indazol-3-yl)-5-fluorobenzoic acid] | 50 to 500 nM |
| COc1cc(-c2nn(C(=O)c3c(Cl)cccc3C(F)(F)F)c3cccc(F)c23)c(F)cc1C(=O)O [Example 24Y, 4-(1-(2-chloro-6-(trifluoromethyl)-benzoyl)-4-fluoro-1H-indazol-3-yl)-5-fluoro-2-methoxybenzoic acid] | < 50 nM |
| O=C(O)c1cc(-c2nn(C(=O)c3c(Cl)cccc3C(F)(F)F)c3cccc(F)c23)ccc1O [Example 24Z, 5-(1-(2-chloro-6-(trifluoromethyl)-benzoyl)-4-fluoro-1H-indazol-3-yl)-2-hydroxybenzoic acid] | > 10000 nM |
| O=C(O)c1ccc(-c2nn(C(=O)c3c(Cl)cccc3C(F)(F)F)c3cc(C(=O)NCCO)ccc23)cc1 [Example 25A, sodium 4-(1-(2-chloro-6-(trifluoromethyl)benzoyl)-6-(2-hydroxyethylcarbamoyl)-1H-indazol-3-yl)benzoate] | < 50 nM |
| CN(C)C(=O)c1ccc2c(-c3ccc(C(=O)O)cc3)nn(C(=O)c3c(Cl)cccc3C(F)(F)F)c2c1 [Example 25B, 4-(1-(2-chloro-6-(trifluoromethyl)benzoyl)-6-(dimethyl-carbamoyl)-1H-indazol-3-yl)benzoic acid] | < 50 nM |
| CN(C)C(=O)c1ccc2c(-c3ccc(C(=O)O)cc3F)nn(C(=O)c3c(Cl)cccc3C(F)(F)F)c2c1 [Example 25E, 4-(1-(2-chloro-6-(trifluoromethyl)benzoyl)-6-(dimethyl-carbamoyl)-1H-indazol-3-yl)-3-fluorobenzoic acid] | < 50 nM |
| O=C(NCCO)c1ccc2c(-c3ccc(C(=O)O)c(F)c3)nn(C(=O)c3c(Cl)cccc3C(F)(F)F)c2c1 [Example 25G, 4-(1-(2-chloro-6-(trifluoromethyl)benzoyl)-6-(2-hydroxyethyl-carbamoyl)-1H-indazol-3-yl)-2-fluorobenzoic acid] | 50 to 500 nM |
| O=C(O)c1ccc(-c2nn(C(=O)c3c(Cl)cccc3C(F)(F)F)c3cc(C(=O)NCCO)ccc23)c(F)c1 [Example 25H, 4-(1-(2-chloro-6-(trifluoromethyl)benzoyl)-6-(2-hydroxyethyl-carbamoyl)-1H-indazol-3-yl)-3-fluorobenzoic acid] | < 50 nM |
| CN(C)C(=O)c1ccc2c(-c3ccc(C(=O)O)c(F)c3)nn(C(=O)c3c(Cl)cccc3C(F)(F)F)c2c1 [Example 25I, 4-(1-(2-chloro-6-(trifluoromethyl)benzoyl)-6-(dimethyl-carbamoyl)-1H-indazol-3-yl)-2-fluorobenzoic acid] | 50 to 500 nM |
| CC(=O)Oc1cc(-c2nn(C(=O)c3c(Cl)cccc3C(F)(F)F)c3cccc(F)c23)ccc1C(=O)O [Example 26B, 2-acetoxy-4-(1-(2-chloro-6-(trifluoromethyl)benzoyl)-4-fluoro-1H-indazol-3-yl)benzoic acid] | < 50 nM |
